Results: ChEMBL document CHEMBL1201862, “PubChem BioAssay data set” (2004)
Active and inactive are the calls of the source.

Key:
[1] = molecular target: Proto-oncogene tyrosine-protein kinase Src (Homo sapiens, UniProt P12931); type: functional;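 also: SRC entry within a kinome-wide kinase profiling panel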
[2] = molecular target: STE20-like serine/threonine-protein kinase (Homo sapiens, UniProt Q9H2G2); type: functional
[3] = molecular target: cAMP-dependent protein kinase catalytic subunit PRKX (Homo sapiens, UniProt P51817); type: functional
Aurora kinase A = Aurora kinase A (Homo sapiens, UniProt O14965); type: functional;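 also: value from the Navigating the Kinome kinase panel profiling, panel entry STK6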
[4] = molecular target: Mast/stem cell growth factor receptor Kit (Homo sapiens, UniProt P10721); type: functional;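 also: KIT entry within a kinase panel assay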
[5] = molecular target: Homeodomain-interacting protein kinase 4 (Homo sapiens, UniProt Q8NE63); type: functional
[6] = molecular target: Tyrosine-protein kinase ABL1 (Homo sapiens, UniProt P00519); type: functional
[7] = molecular target: Dual specificity protein kinase CLK2 (Homo sapiens, UniProt P49760); type: functional
[8] = molecular target: cAMP-dependent protein kinase catalytic subunit alpha (Homo sapiens, UniProt P17612); type: functional
[9] = molecular target: Tyrosine-protein kinase FRK (Homo sapiens, UniProt P42685); type: functional;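 also: FRK tested as one member of a kinome panel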
[10] = molecular target: Serine/threonine-protein kinase pim-2 (Homo sapiens, UniProt Q9P1W9); type: functional;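 also: value comes from a broad kinase panel profiling study in which PIM2 was one of the panel members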
[11] = molecular target: Serine/threonine-protein kinase pim-1 (Homo sapiens, UniProt P11309); type: functional
[12] = molecular target: Mitogen-activated protein kinase kinase kinase kinase 5 (Homo sapiens, UniProt Q9Y4K4); type: functional;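 also: measured as one member of a kinome-spanning kinase panel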
[13] = molecular target: Tyrosine-protein kinase Fyn (Homo sapiens, UniProt P06241); type: functional
[14] = molecular target: Tyrosine-protein kinase SYK (Homo sapiens, UniProt P43405); type: functional
[15] = molecular target: Tyrosine-protein kinase Srms (Homo sapiens, UniProt Q9H3Y6); type: functional;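 also: SRMS measured as one member of a kinome-wide kinase profiling panel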
[16] = molecular target: Receptor-type tyrosine-protein kinase FLT3 (Homo sapiens, UniProt P36888); type: functional;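 also: FLT3 was tested as one member of a kinome-wide kinase panel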
[17] = molecular target: Serine/threonine-protein kinase BRSK1 (Homo sapiens, UniProt Q8TDC3); type: functional;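 also: measured within a kinome-wide kinase panel, with the target listed as KIAA1811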
[18] = molecular target: 3-phosphoinositide-dependent protein kinase 1 (Homo sapiens, UniProt O15530); type: functional;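 also: value comes from the Navigating the Kinome panel, PDPK1 member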
[19] = molecular target: Testis-specific serine/threonine-protein kinase 1 (Homo sapiens, UniProt Q9BXA7); type: functional
[20] = molecular target: Mitogen-activated protein kinase 9 (Homo sapiens, UniProt P45984); type: functional;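 also: value from a kinome panel profiling assay, MAPK9 panel entry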
[21] = molecular target: Serine/threonine-protein kinase PAK 1 (Homo sapiens, UniProt Q13153); type: functional
Ephrin type-A receptor 2 = Ephrin type-A receptor 2 (Homo sapiens, UniProt P29317); type: functional;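 also: EPHA2 tested as one member of a kinome-wide kinase panel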
[22] = molecular target: Mitogen-activated protein kinase 12 (Homo sapiens, UniProt P53778); type: functional;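 also: measured as one member of a kinome-wide kinase profiling panel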
[23] = molecular target: Serine/threonine-protein kinase D2 (Homo sapiens, UniProt Q9BZL6); type: functional;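 also: measured against PRKD2 as one member of a kinome-wide kinase profiling panel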
[24] = Counterscreen for activators of the function of SWI/SNF related, matrix associated, actin dependent regulator of chromatin, subfamily a, member 2 (SMARCA2, BRM): Luminescence-based cell-based high throughput dose response assay to identify non-selective compounds using the VP16 reporter assay.; type: functional
[25] = molecular target: Glucose-6-phosphate 1-dehydrogenase (Homo sapiens, UniProt P11413); assay: human G6PD enzyme inhibitors, dose response, selectivity assay for P. falciparum G6PD inhibitor project, biochemical, fluorescence (AID 504792); type: functional
[26] = Luminescence-based dose response cell-based high throughput screening assay for cytotoxic compounds using the IEC-6 intestinal epithelial cell line. [Related pubchem assays: 1858 (Summary AID.), 1825 (Counterscreen.), 1907 (Confirmation screen.)]; type: functional
[27] = molecular target: T1, RNA-binding protein pos-1 (Caenorhabditis elegans, UniProt G5EF15); assay: inhibitors of POS-1/mex-3 RNA binding, dose response, biochemical, fluorescence polarization (AID 1964);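 also: purified POS-1 fused to maltose binding protein made in E. coli; potency of compounds blocking POS-1 binding to fluorescent RNA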
T1 sequence (G5EF15 whole entry): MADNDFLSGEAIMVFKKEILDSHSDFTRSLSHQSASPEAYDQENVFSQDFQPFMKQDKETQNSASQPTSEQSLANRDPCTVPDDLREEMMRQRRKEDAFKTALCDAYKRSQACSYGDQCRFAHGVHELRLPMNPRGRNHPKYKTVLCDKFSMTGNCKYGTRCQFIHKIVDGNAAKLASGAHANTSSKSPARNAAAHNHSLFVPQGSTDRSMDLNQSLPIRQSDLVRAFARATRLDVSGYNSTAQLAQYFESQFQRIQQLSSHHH

Large T antigen = Large T antigen (Simian virus 40, UniProt P03070); type: functional, Betapolyomavirus macacae;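 also: Confirmatory-stage PubChem screen for compounds that inhibit SV40 T antigen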
[28] = C. albicans growth with fluconazole, confirmation, fluorescence, retest (AID 2467); type: functional, cell-based
[29] = NIH-3T3 fibroblast cytotoxicity, dose response, cytotoxicity control, cell-based, fluorescence, Alamar Blue, secondary assay (AID 2327); type: functional;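 also: NIH-3T3 mouse fibroblasts cultured with fluconazole at 8 µg/mL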

Chain of Tyrosine-protein kinase FRK (P42685 whole entry): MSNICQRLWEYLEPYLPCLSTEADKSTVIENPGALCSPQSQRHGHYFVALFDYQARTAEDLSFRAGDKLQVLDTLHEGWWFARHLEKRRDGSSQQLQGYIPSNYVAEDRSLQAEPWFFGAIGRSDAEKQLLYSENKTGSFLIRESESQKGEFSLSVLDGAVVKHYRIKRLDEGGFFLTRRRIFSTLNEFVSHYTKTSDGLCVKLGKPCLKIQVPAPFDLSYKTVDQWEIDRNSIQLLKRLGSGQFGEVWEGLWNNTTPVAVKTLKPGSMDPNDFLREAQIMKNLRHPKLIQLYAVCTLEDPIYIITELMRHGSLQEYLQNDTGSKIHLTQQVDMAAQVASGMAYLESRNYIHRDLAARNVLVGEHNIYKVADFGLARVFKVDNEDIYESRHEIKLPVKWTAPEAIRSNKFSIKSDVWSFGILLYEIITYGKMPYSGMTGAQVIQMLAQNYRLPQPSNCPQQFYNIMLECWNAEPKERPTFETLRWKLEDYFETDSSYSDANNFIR
Chain of Large T antigen (P03070 whole entry): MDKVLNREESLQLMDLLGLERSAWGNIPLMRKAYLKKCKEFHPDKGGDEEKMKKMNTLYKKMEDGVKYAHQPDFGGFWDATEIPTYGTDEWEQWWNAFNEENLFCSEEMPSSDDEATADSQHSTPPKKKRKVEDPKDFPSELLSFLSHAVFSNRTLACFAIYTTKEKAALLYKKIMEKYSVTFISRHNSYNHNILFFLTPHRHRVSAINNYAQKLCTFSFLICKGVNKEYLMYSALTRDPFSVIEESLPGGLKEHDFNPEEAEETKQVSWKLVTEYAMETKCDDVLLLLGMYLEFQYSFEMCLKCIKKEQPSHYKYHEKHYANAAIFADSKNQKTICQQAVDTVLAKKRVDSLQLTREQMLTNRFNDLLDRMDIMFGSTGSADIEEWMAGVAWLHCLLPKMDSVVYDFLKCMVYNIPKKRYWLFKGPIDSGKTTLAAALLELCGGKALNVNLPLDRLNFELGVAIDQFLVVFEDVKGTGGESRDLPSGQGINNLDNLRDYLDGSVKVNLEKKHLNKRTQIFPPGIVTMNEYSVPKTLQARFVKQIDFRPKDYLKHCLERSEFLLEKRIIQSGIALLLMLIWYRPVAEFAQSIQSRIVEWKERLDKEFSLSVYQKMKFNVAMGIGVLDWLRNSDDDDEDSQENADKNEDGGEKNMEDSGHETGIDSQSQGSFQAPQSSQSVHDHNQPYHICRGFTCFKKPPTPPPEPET
Chain of Mitogen-activated protein kinase kinase kinase kinase 5 (Q9Y4K4 whole entry): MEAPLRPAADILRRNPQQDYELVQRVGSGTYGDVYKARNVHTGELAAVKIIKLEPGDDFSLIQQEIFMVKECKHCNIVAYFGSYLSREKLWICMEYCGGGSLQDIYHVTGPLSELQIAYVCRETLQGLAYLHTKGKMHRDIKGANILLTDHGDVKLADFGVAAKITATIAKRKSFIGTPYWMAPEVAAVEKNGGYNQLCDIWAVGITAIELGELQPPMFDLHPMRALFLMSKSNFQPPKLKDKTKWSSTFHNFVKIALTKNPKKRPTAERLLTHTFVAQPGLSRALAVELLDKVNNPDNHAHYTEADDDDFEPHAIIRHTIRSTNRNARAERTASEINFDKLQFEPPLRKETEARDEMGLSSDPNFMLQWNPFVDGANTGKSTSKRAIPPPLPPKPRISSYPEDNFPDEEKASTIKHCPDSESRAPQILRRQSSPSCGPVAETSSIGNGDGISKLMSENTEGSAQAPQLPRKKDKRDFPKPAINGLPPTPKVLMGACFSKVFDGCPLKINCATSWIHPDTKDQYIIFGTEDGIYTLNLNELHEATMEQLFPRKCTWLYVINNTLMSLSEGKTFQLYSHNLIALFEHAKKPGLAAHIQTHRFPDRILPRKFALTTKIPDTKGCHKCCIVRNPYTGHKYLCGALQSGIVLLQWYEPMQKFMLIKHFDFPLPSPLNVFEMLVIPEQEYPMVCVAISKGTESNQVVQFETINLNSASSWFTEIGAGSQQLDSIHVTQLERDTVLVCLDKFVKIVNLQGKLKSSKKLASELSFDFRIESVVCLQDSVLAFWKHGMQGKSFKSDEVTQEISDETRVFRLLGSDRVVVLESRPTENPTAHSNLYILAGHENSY
Chain of Mast/stem cell growth factor receptor Kit (P10721 whole entry): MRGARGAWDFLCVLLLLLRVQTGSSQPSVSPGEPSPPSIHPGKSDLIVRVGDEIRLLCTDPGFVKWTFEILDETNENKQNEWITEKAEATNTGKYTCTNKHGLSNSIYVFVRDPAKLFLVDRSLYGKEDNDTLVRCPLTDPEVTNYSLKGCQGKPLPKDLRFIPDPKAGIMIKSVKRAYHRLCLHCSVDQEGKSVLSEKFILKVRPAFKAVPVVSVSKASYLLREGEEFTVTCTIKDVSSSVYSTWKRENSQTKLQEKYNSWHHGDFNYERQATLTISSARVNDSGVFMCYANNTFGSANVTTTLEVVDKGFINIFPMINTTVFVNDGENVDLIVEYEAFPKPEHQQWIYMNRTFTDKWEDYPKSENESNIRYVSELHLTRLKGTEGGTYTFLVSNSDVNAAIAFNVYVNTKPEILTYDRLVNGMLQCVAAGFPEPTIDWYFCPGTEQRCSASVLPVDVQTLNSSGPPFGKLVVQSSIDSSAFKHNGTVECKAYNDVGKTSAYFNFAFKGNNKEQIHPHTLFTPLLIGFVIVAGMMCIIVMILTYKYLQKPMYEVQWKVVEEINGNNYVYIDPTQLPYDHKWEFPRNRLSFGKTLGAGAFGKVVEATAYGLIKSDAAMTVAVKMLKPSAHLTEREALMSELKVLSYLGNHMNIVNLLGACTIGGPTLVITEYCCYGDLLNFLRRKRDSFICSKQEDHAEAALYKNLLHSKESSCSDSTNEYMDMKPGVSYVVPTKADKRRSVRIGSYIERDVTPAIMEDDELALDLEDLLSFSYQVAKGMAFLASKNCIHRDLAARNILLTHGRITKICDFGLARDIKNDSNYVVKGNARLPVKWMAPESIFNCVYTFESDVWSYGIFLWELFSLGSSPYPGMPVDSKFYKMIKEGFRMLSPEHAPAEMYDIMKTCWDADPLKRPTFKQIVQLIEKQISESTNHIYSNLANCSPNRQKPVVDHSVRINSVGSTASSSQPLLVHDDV
Chain of Receptor-type tyrosine-protein kinase FLT3 (P36888 whole entry): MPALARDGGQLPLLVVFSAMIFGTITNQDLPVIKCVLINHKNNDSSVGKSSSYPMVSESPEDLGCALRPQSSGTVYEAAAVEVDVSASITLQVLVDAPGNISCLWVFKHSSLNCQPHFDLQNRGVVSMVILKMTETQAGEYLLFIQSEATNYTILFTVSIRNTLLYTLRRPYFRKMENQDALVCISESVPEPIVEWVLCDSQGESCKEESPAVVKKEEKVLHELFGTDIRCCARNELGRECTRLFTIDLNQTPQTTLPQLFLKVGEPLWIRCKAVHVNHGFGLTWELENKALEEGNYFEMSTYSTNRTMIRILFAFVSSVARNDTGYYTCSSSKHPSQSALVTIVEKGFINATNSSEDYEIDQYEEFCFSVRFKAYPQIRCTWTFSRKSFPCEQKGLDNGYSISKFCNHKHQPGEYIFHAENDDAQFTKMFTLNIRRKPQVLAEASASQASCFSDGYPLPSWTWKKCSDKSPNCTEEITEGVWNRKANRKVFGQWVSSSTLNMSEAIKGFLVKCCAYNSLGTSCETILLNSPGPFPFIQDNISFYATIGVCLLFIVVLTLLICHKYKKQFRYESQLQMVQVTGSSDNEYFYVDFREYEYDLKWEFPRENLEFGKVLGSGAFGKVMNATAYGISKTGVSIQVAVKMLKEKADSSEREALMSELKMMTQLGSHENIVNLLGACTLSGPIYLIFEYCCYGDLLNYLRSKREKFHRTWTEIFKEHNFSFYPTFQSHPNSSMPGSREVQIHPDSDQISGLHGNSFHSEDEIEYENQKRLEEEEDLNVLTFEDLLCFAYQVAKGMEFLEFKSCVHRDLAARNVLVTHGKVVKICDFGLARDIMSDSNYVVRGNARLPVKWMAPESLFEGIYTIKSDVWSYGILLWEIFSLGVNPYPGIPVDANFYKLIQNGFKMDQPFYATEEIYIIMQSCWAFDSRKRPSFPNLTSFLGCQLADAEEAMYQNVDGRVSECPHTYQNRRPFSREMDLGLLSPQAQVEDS
Chain of Serine/threonine-protein kinase pim-2 (Q9P1W9 whole entry): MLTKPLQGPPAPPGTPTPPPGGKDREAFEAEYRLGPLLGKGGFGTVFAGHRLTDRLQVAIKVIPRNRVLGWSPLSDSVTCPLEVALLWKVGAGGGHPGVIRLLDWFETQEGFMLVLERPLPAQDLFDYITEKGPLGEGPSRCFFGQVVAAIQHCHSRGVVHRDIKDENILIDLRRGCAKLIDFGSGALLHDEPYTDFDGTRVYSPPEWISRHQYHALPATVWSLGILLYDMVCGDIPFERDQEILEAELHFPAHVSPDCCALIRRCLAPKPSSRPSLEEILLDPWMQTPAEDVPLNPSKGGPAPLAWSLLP
Chain of Dual specificity protein kinase CLK2 (P49760 whole entry): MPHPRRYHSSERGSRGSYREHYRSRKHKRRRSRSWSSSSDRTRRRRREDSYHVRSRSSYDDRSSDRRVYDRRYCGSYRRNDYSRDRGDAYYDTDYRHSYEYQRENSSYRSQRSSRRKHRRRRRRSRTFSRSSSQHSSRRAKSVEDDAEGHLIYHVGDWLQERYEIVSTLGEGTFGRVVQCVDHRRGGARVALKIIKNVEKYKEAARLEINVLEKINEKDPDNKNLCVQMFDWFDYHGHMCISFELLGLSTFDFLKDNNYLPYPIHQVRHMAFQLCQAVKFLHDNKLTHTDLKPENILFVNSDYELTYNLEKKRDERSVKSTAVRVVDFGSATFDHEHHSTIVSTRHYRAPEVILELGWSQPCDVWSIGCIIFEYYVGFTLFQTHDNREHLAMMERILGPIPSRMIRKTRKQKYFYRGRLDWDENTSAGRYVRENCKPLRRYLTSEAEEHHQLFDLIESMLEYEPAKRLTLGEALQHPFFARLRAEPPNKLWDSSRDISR

Cc1cccc(NC(=O)Nc2ccc3c(c2)CCc2sc4ncnc(N)c4c2-3)c1
Ki [1]: > 2 µM (inactive)
Ki [2]: 63.1 nM (active)
Ki [3]: > 1.58 µM (inactive)
Ki (Aurora kinase A): 79.4 nM (active)
Ki [4]: > 1.26 µM (inactive)
Ki [5]: 79.4 nM (active)
Ki [6]: > 631 nM (inactive)
Ki [7]: 1 µM (active)
Ki [8]: > 7.94 µM (inactive)
Ki [9]: 200 nM (active)
Ki [10]: 501 nM (active)
Ki [11]: 3.98 µM (active)
Ki [12]: 501 nM (active)
Ki [13]: > 794 nM (inactive)
Ki [14]: 1.58 µM (active)
Ki [15]: > 1.58 µM (inactive)
Ki [16]: 2 nM (active)
Ki [17]: 3.16 µM (active)
Ki [18]: > 3.98 µM (inactive)
Ki [19]: > 1.58 µM (inactive)
Ki [20]: > 3.98 µM (inactive)
Ki [21]: > 10 µM (inactive)
Ki (Ephrin type-A receptor 2): 31.6 nM (active)
Ki [22]: > 6.31 µM (inactive)
Ki [23]: > 10 µM (inactive)

Cc1ccc(-n2sc3ccccc3c2=O)cc1
EC50 [24]: 51.5 µM (inactive)
IC50 [25]: 30.1 µM (inactive)

CCC(=O)NC(c1ccc(C)cc1)c1ccc2cccnc2c1O (configuration not stated)
IC50 [26]: 1.62 µM (active)

N/C(=N\N=C/c1ccc(-c2ccc(O)c(C(=O)O)c2)o1)N[N+](=O)[O-]
EC50 [27]: 29.9 µM (active)
IC50 (Large T antigen): 25.4 µM (active)

CCCC(=O)NC(c1ccc(Cl)cc1)c1ccc2cccnc2c1O (configuration not stated)
EC50 [28]: 365 nM (active)
EC50 [29]: 18 µM (active)
